Assay results from patent publication US4241064A, “9H-Pyrido[3,4-b]indole derivatives” (Nippon Shinyaku Co. Ltd., priority 1978, dated 1980).
Read-outs that look alike come from different tables or passages of the source. Values belong to the compound of their own block, whether it stands above or below them.

Tests used:
[1] = target: xanthine-oxidase (Bos taurus, UniProt P80457); assay: xanthine-oxidase inhibitory activity (pre-incubation 5 min, then 10 μM xanthine; Kalker); assay type: biochemical; conditions: Table I; phosphate buffer pH 7.5, 10 μM xanthine; read-out: IC50 (xanthine-oxidase inhibition) (converted)
Text: The foregoing compounds have the property of inhibiting the enzyme xanthine-oxidase. As is known, xanthine-oxidase inhibitors improve hyperuricacidemia by suppressing the formation of uric acid and, as such, find use as therapeutic and prophylactic agents in the treatment of gout, calculus in the urinary organ, tissue degeneration of the circulatory system, and the like. The xanthine-oxidase inhibitory activity is expressed in terms of the concentration of the agent at which a 50% inhibition of xanthine-oxidase activity is observed (IC50). This can be readily measured pre-incubation of test specimens at varying concentrations in phosphate buffer (pH 7.5) for 5 minutes, then adding 10 μM of xanthine, measuring the enzyme activity (Kalker), and comparing the assay result with the activity of a control to determine the percent inhibition. (The IC50 value being derived from a plot of concentration versus percent inhibition).
According to the present invention, commercial picrasma wood, dry pulverized picrasma wood or, preferably, the dry pulverized powder of its heart wood, is extracted with a polar organic solvent such as water or methanol and the extract is then concentrated to yield a whole picrasma extract. This extract is then fractionated as for example by Sephadex LH or silica gel chromatography. The fractions are assayed for xanthine-oxidase inhibitory activity and the active fraction this then purified as by recrystallization.

[2] = test system: Ehrlich ascites cells; assay: survival of mice transplanted with Ehrlich ascites cells, i.p. dosing for 7 consecutive days (potentiation of mitomycin C); assay type: in vivo, ddY mice; conditions: for Survival Rate (%): i.p. 7 days, compound 1 50 mg/kg/day, mitomycin C 0.5 mg/kg/day
Description: (§1) Thus, ddY mice (male, body weights ca 18 g) were reared for a week and 1×10^6 Ehrlich ascites cells/animal were intraperitoneally transplanted. After 24 hours, mitomycin C or/and compound 1 were administered intraperitoneally for 7 consecutive days.

[3] = test system: Ehrlich ascites cells; conditions: single i.p. at day 6, mitomycin C 1 mg/kg, compound 1 50 mg/kg
Description: as §1

xanthine-oxidase, sequence (P80457 whole entry): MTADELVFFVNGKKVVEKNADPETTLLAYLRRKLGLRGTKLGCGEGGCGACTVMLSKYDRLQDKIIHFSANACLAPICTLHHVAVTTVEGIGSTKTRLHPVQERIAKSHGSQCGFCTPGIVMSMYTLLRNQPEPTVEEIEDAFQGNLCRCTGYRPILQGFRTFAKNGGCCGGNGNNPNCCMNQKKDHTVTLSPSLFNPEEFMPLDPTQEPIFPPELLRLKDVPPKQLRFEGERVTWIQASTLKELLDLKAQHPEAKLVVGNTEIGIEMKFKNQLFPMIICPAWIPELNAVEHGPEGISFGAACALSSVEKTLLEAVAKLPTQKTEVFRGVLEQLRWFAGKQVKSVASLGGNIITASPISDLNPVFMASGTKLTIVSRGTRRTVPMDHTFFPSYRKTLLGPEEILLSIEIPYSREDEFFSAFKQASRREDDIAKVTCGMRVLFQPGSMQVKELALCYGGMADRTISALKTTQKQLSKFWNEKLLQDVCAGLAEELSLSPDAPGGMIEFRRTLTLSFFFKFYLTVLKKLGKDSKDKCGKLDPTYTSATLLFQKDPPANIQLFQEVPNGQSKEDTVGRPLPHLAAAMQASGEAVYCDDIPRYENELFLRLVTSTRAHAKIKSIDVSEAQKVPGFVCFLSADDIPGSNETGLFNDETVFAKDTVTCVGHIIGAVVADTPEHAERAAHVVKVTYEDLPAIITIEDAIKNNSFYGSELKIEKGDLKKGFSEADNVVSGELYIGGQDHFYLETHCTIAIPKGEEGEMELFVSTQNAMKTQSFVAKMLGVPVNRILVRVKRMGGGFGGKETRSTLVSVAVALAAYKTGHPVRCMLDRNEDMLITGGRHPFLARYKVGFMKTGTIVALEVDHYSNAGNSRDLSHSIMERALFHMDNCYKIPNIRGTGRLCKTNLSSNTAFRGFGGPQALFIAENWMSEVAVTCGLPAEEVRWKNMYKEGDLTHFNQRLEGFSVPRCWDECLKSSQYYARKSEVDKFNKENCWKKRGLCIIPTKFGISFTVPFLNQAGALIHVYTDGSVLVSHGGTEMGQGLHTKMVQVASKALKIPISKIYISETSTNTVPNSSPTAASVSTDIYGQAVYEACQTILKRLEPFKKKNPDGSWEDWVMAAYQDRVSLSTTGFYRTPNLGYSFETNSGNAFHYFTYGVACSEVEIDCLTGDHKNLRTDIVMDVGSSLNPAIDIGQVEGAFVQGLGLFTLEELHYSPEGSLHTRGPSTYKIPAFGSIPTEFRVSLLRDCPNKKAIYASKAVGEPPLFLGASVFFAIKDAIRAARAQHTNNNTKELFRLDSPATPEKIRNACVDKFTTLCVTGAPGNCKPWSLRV

IC50 [1]: 0.336 µM
Structure (SMILES): OCc1ncc(O)c2c1[nH]c1ccccc12 [OH H CH2 OH, 1-Hydroxymethyl-4-Hydroxy-9H-pyrido[3,4-b]Indole]

Structure (SMILES): O=Cc1ncc(O)c2c1[nH]c1ccccc12 [Compound 1, 1-formyl-4-hydroxy-9H-pyrido[3,4-b]indole]
IC50 [1]: 0.00306 µM
Survival Rate (%) ([2]; Day 16): 100%
Survival Rate (%) ([2]; Day 17): 90%
Survival Rate (%) ([2]; Day 18): 80%
Survival Rate (%) ([2]; Day 19): 80%
Survival Rate (%) ([2]; Day 20): 70%
Survival Rate (%) ([2]; Day 21): 70%
Survival Rate (%) ([2]; Day 22): 40%
Survival Rate (%) ([2]; Day 23): 30%
Survival Rate (%) ([2]; Day 24): 10%
Survival Rate (%) ([2]; Day 25): 10%
Survival Rate (%) ([2]; Day 26): 10%
potentiation of the antitumor activity of mitomycin C and similar antibiotics ([2]; result in words, conventional laboratory models): significant potentiation of the antitumor activity of mitomycin C

IC50 [1]: 78.4 µM
Structure (SMILES): COC(=O)c1ncc(O)c2c1[nH]c1ccccc12 [OH H COOCH3, 1-Carbomethoxy-4-Hydroxy-9H-Pyrido[3,4-b]Indole]

IC50 [1]: 1.1 µM
Structure (SMILES): O=C(O)c1ncc(O)c2c1[nH]c1ccccc12 [OH H COOH, 1-Carboxy-4-Hydroxy-9H-Pyrido[3,4-b]Indole]

IC50 [1]: 4.08 µM
Structure (SMILES): O=Cc1nccc2c1[nH]c1ccccc12 [H H CHO]

Structure (SMILES): CC(=O)Oc1cnc(C=O)c2[nH]c3ccccc3c12 [OCOCH3 H CHO, 1-Formyl-4-Acetoxy-9H-Pyrido[3,4-b]Indole]
IC50 [1]: 0.00669 µM

IC50 [1]: 177 µM
Structure (SMILES): COC(=O)c1nccc2c1[nH]c1ccccc12 [H H COOCH3, 1-carbomethoxy-9H-pyrido[3,4-b]indole]

Structure (SMILES): CO[C@@]12[C@H](COC(N)=O)C3=C(C(=O)C(C)=C(N)C3=O)N1C[C@@H]1N[C@@H]12 [Mitomycin, mitomycin C]
No. Surviving ([3]; Day 10): 7
No. Surviving ([3]; Day 11): 7
No. Surviving ([3]; Day 12): 7
No. Surviving ([3]; Day 13): 7
No. Surviving ([3]; Day 14): 7
No. Surviving ([3]; Day 15): 7
No. Surviving ([3]; Day 16): 7
No. Surviving ([3]; Day 17): 7
No. Surviving ([3]; Day 18): 5
No. Surviving ([3]; Day 19): 5
No. Surviving ([3]; Day 20): 4
No. Surviving ([3]; Day 21): 4
No. Surviving ([3]; Day 22): 4
No. Surviving ([3]; Day 23): 2
No. Surviving ([3]; Day 24): 2
No. Surviving ([3]; Day 25): 1
No. Surviving ([3]; Day 26): 1
No. Surviving ([3]; Day 27): 1
No. Surviving ([3]; Day 28): 1
Survival Rate (%) ([2]; Day 16): 100%
Survival Rate (%) ([2]; Day 17): 100%
Survival Rate (%) ([2]; Day 18): 100%
Survival Rate (%) ([2]; Day 19): 100%
Survival Rate (%) ([2]; Day 20): 100%
Survival Rate (%) ([2]; Day 21): 100%
Survival Rate (%) ([2]; Day 22): 90%
Survival Rate (%) ([2]; Day 23): 90%
Survival Rate (%) ([2]; Day 24): 90%
Survival Rate (%) ([2]; Day 25): 90%
Survival Rate (%) ([2]; Day 26): 90%
Survival Rate (%) ([2]; Day 27): 90%
Survival Rate (%) ([2]; Day 28): 80%
Survival Rate (%) ([2]; Day 29): 70%
Survival Rate (%) ([2]; Day 30): 70%
Survival Rate (%) ([2]; Day 33): 70%
Survival Rate (%) ([2]; Day 34): 60%
Survival Rate (%) ([2]; Day 38): 60%
Survival Rate (%) ([2]; Day 39): 50%
Survival Rate (%) ([2]; Day 48): 50%
Survival Rate (%) ([2]; Day 49): 40%
Survival Rate (%) ([2]; Day 52): 40%
Survival Rate (%) ([2]; Day 53): 30%
Survival Rate (%) ([2]; Day 56): 30%
Survival Rate (%) ([2]; Day 57): 20%
Survival Rate (%) ([2]; Day 58): 20%
Survival Rate (%) ([2]; Day 59): 20%
Survival Rate (%) ([2]; Day 60 after transplantation): 20%

IC50 [1]: 21.7 µM
Structure (SMILES): OCc1nccc2c1[nH]c1ccccc12 [H H CH2 OH, 1-Hydroxymethyl-9H-Pyrido[3,4-b]Indole]

IC50 [1]: 1.79 µM
Structure (SMILES): O=Cc1nc(O)cc2c1[nH]c1ccccc12 [H OH CHO, 1-Formyl-3-Hydroxy-9H-Pyrido[3,4-b]Indole]
